Measurements published in US20060121116A1, “Hydrogel for cell separation and method of separating cells” (priority 2003, published 2006).

System: human peripheral blood leucocytes
Assay: Migration capability of neutrophils: fMLP in soft agar under hydrogel layer
Assay type: cell-based
Details: for Number of Cells in Hydrogel of the Invention: 37° C., 3 hours, 10^7 leucocytes applied; for Number of Cells in Soft Agar: microscopically observed
Experimental: Soft agar mediums (prepared by dissolving Nacalai Tesque's soft agar powder in a D′MEM (Dulbecco's Modification Eagle's Medium, by GIBCO, containing 10% FCS (Fetal Calf Serum)) having 0.6% of concentration and each containing 0 M, 10^−6 M, 10^−7 M or 10^−8 M of fMLP (N-formyl-methionyl-leucyl-phenylalanine, molecular weight 437.6, chemotactic peptide, produced by Sigma) were prepared at 42° C. Each medium was put into a polystyrene dish (mfd. by SOMILON) having a diameter of 35 mm in an amount of 1 ml (depth of medium, about 1 mm) each, and gelled therein at room temperature. The hydrogel-forming polymer (TGP-5) of the invention obtained in Production Example 7 was sterilized with EOG in the same manner as in Production Example 4. One g of the polymer was dissolved in 9 g of D′MEM medium at 4° C., and this was put on the above-mentioned soft agar gel in an amount of 0.5 ml (depth of the polymer solution, about 0.5 mm) each, and gelled at room temperature. The sol-gel transition temperature of the hydrogel was 18° C. On the hydrogel layer of the invention, a tissue culture insert (mfd. by NUNC) with a filter having a pore size of 8.0 μm was set, and 0.5 ml of a cell suspension containing 10^7 human peripheral blood leucocytes was put into the insert and set in an incubator at 37° C. This was statically set therein at 37° C. for 3 hours, and then the dish was taken out of the incubator. The dish was cooled on ice, the tissue culture insert was removed, and the hydrogel of the invention was converted into a sol state. The hydrogel of the invention that was liquid with cooling with ice was collected, diluted with physiological saline and centrifuged (3000 rpm, 5 minutes). The precipitated cell were re-suspended in 20 μl of physiological saline, and the number of the cell was counted to thereby determine the number of the neutrophils having moved into the hydrogel of the invention. After the hydrogel of the invention was removed, the number of the cell having moved into the soft agar was microscopically observed, and the result is shown in Table 1.

[1] = fMLP concentration in soft agar 10^−6 M
[2] = fMLP concentration in soft agar 10^−7 M
[3] = fMLP concentration in soft agar 10^−8 M

CSCC[C@H](NC=O)C(=O)N[C@@H](CC(C)C)C(=O)N[C@@H](Cc1ccccc1)C(=O)O [fMLP, N-formyl-methionyl-leucyl-phenylalanine]
Number of Cells in Hydrogel of the Invention [1]: 300 | Number of Cells in Soft Agar [1]: numerous | Number of Cells in Hydrogel of the Invention [2]: 17,600 | Number of Cells in Soft Agar [2]: many | Number of Cells in Hydrogel of the Invention [3]: 4,740 | Number of Cells in Soft Agar [3]: a few
